What follows are compounds tested against Ras-related C3 botulinum toxin substrate 1 (Mus musculus, UniProt P63001) (assay: wildtype Rac1 GTP binding inhibitors, SAR follow-up, biochemical, additional analogs, multiplex bead flow cytometry (AID 2040)). Conditions: not given.

SMILES | EC50 [µM]
O=C1NC(=S)N/C1=C1\C(=O)Nc2ccccc21 [(3Z)-3-(5-oxo-2-sulfanylideneimidazolidin-4-ylidene)-1H-indol-2-one] | 1.67
O=C1Nc2ccccc2/C1=C1/Nc2ccccc2C1=O [2-[(3Z)-2-oxo-2,3-dihydro-1H-indol-3-ylidene]-2,3-dihydro-1H-indol-3-one] | 30
C[C@@H](C(=O)O)c1cccc(Oc2ccccc2)c1 [calcium;2-(3-phenoxyphenyl)propanoic acid;hydrate] | 30
O=C1N=c2c(Cl)cccc2=C1c1[nH]c2ccccc2c1NO [7-chloro-3-[3-(hydroxyamino)-1H-indol-2-yl]-2-indolone] | 30
O=C1Nc2c(F)cccc2C1=C1Nc2ccccc2C1=O | 34.6
O=C1N=c2ccccc2=C1c1[nH]c2ccccc2c1NO [3-[3-(hydroxyamino)-1H-indol-2-yl]-2-indolone] | 30
O=C1N=c2c(F)cccc2=C1c1[nH]c2ccccc2c1NO [7-fluoro-3-[3-(hydroxyamino)-1H-indol-2-yl]-2-indolone] | 30
O=C1Nc2ccc(Br)cc2C1=C1Nc2ccccc2C1=O | 16.1
O=C1Nc2c(Br)cccc2C1=C1Nc2ccccc2C1=O | 30
O=C1Nc2c(Cl)cccc2C1=C1Nc2ccccc2C1=O | 30
O=C1NC(=O)/C(=C2/C(=O)Nc3ccccc32)N1 | 2.64
O=C1N=c2c(Br)cccc2=C1c1[nH]c2ccccc2c1NO [7-bromanyl-3-[3-(oxidanylamino)-1H-indol-2-yl]indol-2-one] | 30
O=C1N=c2ccc(Br)cc2=C1c1[nH]c2ccccc2c1NO [5-bromanyl-3-[3-(oxidanylamino)-1H-indol-2-yl]indol-2-one] | 30

Same assay, conditions: inactive by the depositor's call

SMILES | EC50 [µM]
COc1ccc(S(=O)(=O)n2c(N)c(C#N)c(-c3cncc(Br)c3)c2C(=O)c2ccccc2)cc1 [2-amino-5-benzoyl-4-(5-bromo-3-pyridinyl)-1-(4-methoxyphenyl)sulfonyl-3-pyrrolecarbonitrile] | 9.84
COc1ccc(C(=O)C#Cc2ccccc2)cc1 [1-(4-methoxyphenyl)-3-phenyl-2-propyn-1-one] | 30
N#Cc1ccc(C(=O)C#Cc2ccccc2)cc1 [4-(3-phenylprop-2-ynoyl)benzenecarbonitrile] | 30
O=C1Nc2ccccc2/C1=C1/Cc2ccccc2C1=O [UNM-0000305763] | 30
O=C1Nc2cccc(Br)c2/C1=C1/Cc2ccccc2C1=O | 12.1
CC1=C(CC(=O)O)c2cc(F)ccc2/C1=C/c1ccc([S+](C)[O-])cc1 (stereo not drawn) [UNM-0000306136] | 30
COc1ccc2cc(CC(=O)O)ccc2c1 [2-(6-methoxynaphthalen-2-yl)ethanoic acid] | 30
N#Cc1c(-c2ccc(Cl)cc2)c(C(=O)c2ccccc2)n(S(=O)(=O)c2ccc([N+](=O)[O-])cc2)c1N [UNM-0000305780] | 30
O=C1Nc2c(Br)cccc2/C1=C1/Cc2ccccc2C1=O [(3E)-7-bromo-3-(3-oxo-1H-inden-2-ylidene)-1H-indol-2-one] | 30
CCCCS(=O)(=O)n1c(N)c(C#N)c(-c2cc(OC)c(OC)c(OC)c2)c1C(=O)c1ccccc1 [2-amino-5-benzoyl-1-butylsulfonyl-4-(3,4,5-trimethoxyphenyl)-3-pyrrolecarbonitrile] | 30
O=C(C#Cc1ccccc1)c1cccnc1 [3-phenyl-1-pyridin-3-ylprop-2-yn-1-one] | 30
O=C(C#Cc1ccccc1)c1ccc(F)cc1 [UNM-0000306059] | 30
COc1ccc(S(=O)(=O)n2c(N)c(C#N)c(-c3ccccc3)c2C(=O)c2ccc(Br)cc2)cc1 | 30
O=C(C#Cc1ccccc1)c1ccc(Cl)cc1 [UNM-0000306055] | 30
COc1ccc(S(=O)(=O)n2c(N)c(C#N)c(-c3cc(Br)c(OC)c(OC)c3)c2C(=O)c2ccccc2)cc1 [UNM-0000305782] | 30
O=C(C#Cc1ccccc1)c1ccccc1[N+](=O)[O-] [UNM-0000306038] | 30
COC(=O)c1ccc(C(=O)C#Cc2ccccc2)cc1 [4-(1-oxo-3-phenylprop-2-ynyl)benzoic acid methyl ester] | 30
CC(=O)Oc1ccccc1C(=O)O [2-(acetyloxy)benzoic acid] | 30
CSc1ccc(/C=C2/C(C)=C(CC(=O)O)c3cc(F)ccc32)cc1 [{6-Fluoro-2-methyl-3-[1-(4-methylsulfanyl-phenyl)-meth-(E)-ylidene]-3H-inden-1-yl}-acetic acid] | 54.7
O=C(C#Cc1ccccc1)c1ccc(OC(F)(F)F)cc1 | 30
O=C(C#Cc1ccccc1)c1ccccc1 [UNM-0000306039] | 30
O=C(C#Cc1ccccc1)c1ccc([N+](=O)[O-])cc1 [1-(4-nitrophenyl)-3-phenyl-2-propyn-1-one] | 30
O=[N+]([O-])c1ccc(C#Cc2ccccc2)cc1 | 30
COc1cc(-c2c(C#N)c(N)n(S(=O)(=O)c3c(C(C)C)cc(C(C)C)cc3C(C)C)c2C(=O)c2ccccc2)cc(OC)c1OC [2-azanyl-5-(phenylcarbonyl)-4-(3,4,5-trimethoxyphenyl)-1-[2,4,6-tri(propan-2-yl)phenyl]sulfonyl-pyrrole-3-carbonitrile] | 75.3
COc1ccc(-c2c(C#N)c(N)n(S(C)(=O)=O)c2C(=O)c2ccccc2)cc1Br [2-azanyl-4-(3-bromanyl-4-methoxy-phenyl)-1-methylsulfonyl-5-(phenylcarbonyl)pyrrole-3-carbonitrile] | 30

From BindingDB's records for doi:10.7270/Q2W37TR5 (Nmmlsc, 2009)
